Molecules are shown by their SMILES. ≈ marks a conversion by molar mass, not a printed value.

Holding throughout (experiment): ≥ marks a high value that may be exact or a test limit, other limits are often not marked, values filed in µg/mL are converted to µM
Assay [1] concerns Candida albicans ATCC 2002.
Assay [2] has as its system Citrobacter koseri.
Assay [3] concerns Escherichia coli ATCC 25922.
Assay [4] deals with Escherichia coli BL21.
Assay [5] has as its system Escherichia coli INV-a.
The test system of assay [6] is Escherichia coli JM109.
Assay [7] concerns Klebsiella pneumoniae CCRC 10694.
The test system of assay [8] is Lactococcus lactis MG1363.
Assay [9] deals with Pseudomonas aeruginosa.
In assay [10] the test system is Salmonella enterica.
In assay [11] the test system is Salmonella typhimurium CCRC 12947.
The subject of assay [12] is Staphylococcus aureus ATCC 2592.
For assay [13], the system named is Staphylococcus aureus CCRC 12652.
Assay [14] concerns Staphylococcus aureus CCRC 15211.
Assay [15] concerns Staphylococcus xylosus.
Assay [16] relates to Streptococcus alactolyticus.
Assay [17] concerns Vibrio parahaemolyticus CCRC 10806.
Assay [18] concerns Trypanosoma cruzi.
Assay [19] has as its system Aspergillus fumigatus.
The test system of assay [20] is Bibersteinia trehalosi.
The test system of assay [21] is Corynebacterium pseudotuberculosis ATCC 19410.
Assay [22] has as its system Klebsiella pneumoniae.
Assay [23] concerns Mannheimia haemolytica Serovar 1.
Assay [24] concerns Mannheimia haemolytica Serovar 2.
The subject of assay [25] is Mannheimia haemolytica Serovar 6.
The subject of assay [26] is Pasteurella multocida.
Assay [27] has as its system Pseudomonas aeruginosa PAO1.
Assay [28] deals with Salmonella enterica subsp. arizonae.
In assay [29] the test system is Staphylococcus aureus.

By MIC is commonly meant the lowest concentration found to suppress growth. Read a low MIC as a more susceptible organism. With `CC[C@H](C)[C@H](N)C(=O)N[C@@H](CC(N)=O)C(=O)N[C@@H](Cc1c[nH]c2ccccc12)C(=O)N[C@@H](CCCCN)C(=O)NCC(=O)N[C@H](C(=O)N[C@@H](C)C(=O)N[C@@H](C)C(=O)N[C@@H](CCSC)C(=O)N[C@@H](C)C(=O)N[C@@H](CCCCN)C(=O)N[C@@H](CCCCN)C(=O)N[C@@H](CC(C)C)C(=O)N[C@@H](CC(C)C)C(N)=O)[C@@H](C)CC` [INWKGIAAMAKKLL], the MIC was found to be 2.38 µM (≈ 3.7 µg/mL) in assay [1]; 2.57 µM (≈ 4 µg/mL) in assay [2]; 4.82 µM (≈ 7.5 µg/mL) in assay [3]; 5.14 µM (≈ 8 µg/mL) in assay [4]; 8 µM (≈ 12.4 µg/mL) in assay [5]; 5.14 µM (≈ 8 µg/mL) in assay [6]. The MIC is at least 41.1 µM in assay [7]; 2.5 µM (≈ 3.89 µg/mL) in assay [8]; 164 µM (≈ 256 µg/mL) in assay [9]; 20.6 µM (≈ 32 µg/mL) in assay [10]; 20.6 µM (≈ 32 µg/mL) in assay [11]; 2.38 µM (≈ 3.7 µg/mL) in assay [12]. In addition, the MIC is 20.6 µM (≈ 32 µg/mL) in assay [13]; at least 41.1 µM in [14]; 1.93 µM (≈ 3 µg/mL) in [15]; 10.3 µM (≈ 16 µg/mL) in assay [16]; 20.6 µM (≈ 32 µg/mL) in [17].

The compound `CC[C@H](C)[C@H](NC(=O)[C@H](C)NC(=O)[C@H](CO)NC(=O)[C@@H](NC(=O)[C@H](C)NC(=O)[C@H](CC(N)=O)NC(=O)[C@@H](NC(=O)[C@H](C)NC(=O)[C@H](Cc1cnc[nH]1)NC(=O)[C@@H]1CCCN1C(=O)[C@@H](NC(=O)[C@H](CC(C)C)NC(=O)[C@H](CO)NC(=O)[C@H](CC(C)C)NC(=O)[C@@H](N)Cc1ccccc1)[C@@H](C)CC)[C@@H](C)CC)C(C)C)C(=O)N[C@@H](C)C(=O)N[C@@H](CCCCN)C(=O)N[C@@H](Cc1cnc[nH]1)C(=O)N[C@@H](CO)C(N)=O` [FLSLIPHAINAVSAIAKHS] came in with an MIC in [18] of 15.1 µM (≈ 30 µg/mL).

Turning to `CC[C@H](C)[C@H](NC(=O)[C@H](Cc1cnc[nH]1)NC(=O)[C@@H](NC(=O)[C@@H](NC(=O)[C@H](CCCCN)NC(=O)[C@H](CCCN=C(N)N)NC(=O)[C@@H](NC(=O)[C@@H](NC(=O)[C@H](CCCN=C(N)N)NC(=O)[C@@H](N)CCCN=C(N)N)[C@@H](C)CC)[C@@H](C)CC)[C@@H](C)CC)[C@@H](C)CC)C(=O)N[C@H](C(=O)N[C@@H](CCCCN)C(=O)N[C@@H](CCCCN)C(N)=O)[C@@H](C)CC` [RRIIRKIIHIIKK], the MIC in assay [19] is 3.44 µM (≈ 5.8 µg/mL); in assay [20] it was 11.9 µM (≈ 20 µg/mL); in assay [21], 11.9 µM (≈ 20 µg/mL); in assay [22], over 11.9 µM; in assay [23] it was 4.92 µM (≈ 8.3 µg/mL); in [24] it was 2.73 µM (≈ 4.6 µg/mL). Besides, the MIC is 2.49 µM (≈ 4.2 µg/mL) in [25]; 11.9 µM (≈ 20 µg/mL) in assay [26]; 0.356 µM (≈ 0.6 µg/mL) in [27]; 11.9 µM (≈ 20 µg/mL) in assay [28]; over 11.9 µM in [29].

For the origin of these results see DBAASP.
